In patent publication US7202280B2, “Methods for the treatment and prevention of pancreatitis and for induction of liver regeneration” (priority 2002, dated 2007):

Tests used:
[1] = system: syngenic and UKU181 transgenic mice; test: Plasma α-amylase and ALAT in syngenic and transgenic mice after analogue injection; format: in vivo, mouse; details: 24 h before sacrifice
Protocol: (§1) α-methylspermidine, Bis-α-methylspermine and α-methylspermine were administered in saline. […] The data are expressed as means ±S.D. For statistical analysis, the two-tailed Student's t test was used.

[2] = system: syngenic and metallothionein-SSAT mice; test: Hepatic, pancreatic and renal polyamine concentration in syngenic and metallothionein-SSAT mice after analogue; format: in vivo, mouse; details: Sg (syngenic) mice, 24 h before sacrifice
Protocol: as §1

[3] = Tg (transgenic) mice, 12.5 mg/kg
[4] = Tg (transgenic) mice, 37.5 mg/kg

SMILES: CC(N)CCNCCCCNCCC(C)N (stereo not drawn) [bis-α-methylspermine, 1,12-dimethylspermine]
- Plasma ALAT ([1]; Sg (syngenic) mice, 12.5 mg/kg): 49.33 U/dm^3
- Plasma α-amylase ([1]; Sg (syngenic) mice, 12.5 mg/kg): 3167.33 U/dm^3
- Plasma ALAT ([1]; Sg (syngenic) mice, 25 mg/kg): 57.67 U/dm^3
- Plasma α-amylase ([1]; Sg (syngenic) mice, 25 mg/kg): 2931.00 U/dm^3
- Plasma ALAT ([1]; Sg (syngenic) mice, 37.5 mg/kg): 35.67 U/dm^3
- Plasma α-amylase ([1]; Sg (syngenic) mice, 37.5 mg/kg): 2827.00 U/dm^3
- Plasma ALAT ([1]; Sg (syngenic) mice, 50 mg/kg): 62.00 U/dm^3
- Plasma α-amylase ([1]; Sg (syngenic) mice, 50 mg/kg): 2715.33 U/dm^3
- Plasma ALAT [1, 3]: 50.67 U/dm^3
- Plasma α-amylase [1, 3]: 2822.67 U/dm^3
- Plasma ALAT ([1]; Tg (transgenic) mice, 25 mg/kg): 45.33 U/dm^3
- Plasma α-amylase ([1]; Tg (transgenic) mice, 25 mg/kg): 3242.33 U/dm^3
- Plasma ALAT [1, 4]: 31.00 U/dm^3
- Plasma α-amylase [1, 4]: 2540.00 U/dm^3
- Plasma ALAT ([1]; Tg (transgenic) mice, 50 mg/kg): 60.00 U/dm^3
- Plasma α-amylase ([1]; Tg (transgenic) mice, 50 mg/kg): 2886.00 U/dm^3
- hepatic concentration, Bis-α-Methylspermine ([2]; 12.5 mg/kg): 159.88 pmoles/mg tissue wet weight
- hepatic polyamine concentration, N^8-Acetylspermidine ([2]; 12.5 mg/kg): 0.75 pmoles/mg tissue wet weight
- hepatic polyamine concentration, Putrescine ([2]; 12.5 mg/kg): 92.42 pmoles/mg tissue wet weight
- hepatic polyamine concentration, Spermidine ([2]; 12.5 mg/kg): 927.28 pmoles/mg tissue wet weight
- hepatic polyamine concentration, Spermine ([2]; 12.5 mg/kg): 708.04 pmoles/mg tissue wet weight
- pancreatic concentration, Bis-α-Methylspermine ([2]; 12.5 mg/kg): 259.30 ± 10.04 pmoles/mg tissue wet weight
- pancreatic polyamine concentration, N^8-Acetylspermidine ([2]; 12.5 mg/kg): 60.41 pmoles/mg tissue wet weight
- pancreatic polyamine concentration, Putrescine ([2]; 12.5 mg/kg): 298.55 ± 75.14 *^+ pmoles/mg tissue wet weight
- pancreatic polyamine concentration, Spermidine ([2]; 12.5 mg/kg): 6575.15 ± 614.21 ^+ pmoles/mg tissue wet weight
- pancreatic polyamine concentration, Spermine ([2]; 12.5 mg/kg): 981.28 ± 201.81 ^+ pmoles/mg tissue wet weight
- renal concentration, Bis-α-Methylspermine ([2]; 12.5 mg/kg): 259.30 pmoles/mg tissue wet weight
- renal polyamine concentration, N^1-Acetylspermidine ([2]; 12.5 mg/kg): 33.17 pmoles/mg tissue wet weight
- renal polyamine concentration, N^8-Acetylspermidine ([2]; 12.5 mg/kg): 17.62 ± 6.43 pmoles/mg tissue wet weight
- renal polyamine concentration, Putrescine ([2]; 12.5 mg/kg): 142.47 pmoles/mg tissue wet weight
- renal polyamine concentration, Spermidine ([2]; 12.5 mg/kg): 246.29 pmoles/mg tissue wet weight
- renal polyamine concentration, Spermine ([2]; 12.5 mg/kg): 456.65 pmoles/mg tissue wet weight
- hepatic concentration, Bis-α-Methylspermine ([2]; 25 mg/kg): 317.22 pmoles/mg tissue wet weight
- hepatic polyamine concentration, N^8-Acetylspermidine ([2]; 25 mg/kg): 2.38 pmoles/mg tissue wet weight
- hepatic polyamine concentration, Putrescine ([2]; 25 mg/kg): 73.69 pmoles/mg tissue wet weight
- hepatic polyamine concentration, Spermidine ([2]; 25 mg/kg): 879.17 pmoles/mg tissue wet weight
- hepatic polyamine concentration, Spermine ([2]; 25 mg/kg): 699.86 pmoles/mg tissue wet weight
- pancreatic concentration, Bis-α-Methylspermine ([2]; 25 mg/kg): 343.17 ± 35.11 pmoles/mg tissue wet weight
- pancreatic polyamine concentration, Putrescine ([2]; 25 mg/kg): 467.21 ± 419.85^++ pmoles/mg tissue wet weight
- pancreatic polyamine concentration, Spermidine ([2]; 25 mg/kg): 5733.90 ± 300.80 ^+ pmoles/mg tissue wet weight
- pancreatic polyamine concentration, Spermine ([2]; 25 mg/kg): 528.55 ± 241.57 ^+ pmoles/mg tissue wet weight
- renal concentration, Bis-α-Methylspermine ([2]; 25 mg/kg): 343.17 pmoles/mg tissue wet weight
- renal polyamine concentration, N^1-Acetylspermidine ([2]; 25 mg/kg): 28.39 pmoles/mg tissue wet weight
- renal polyamine concentration, N^8-Acetylspermidine ([2]; 25 mg/kg): 17.70 ± 10.63 pmoles/mg tissue wet weight
- renal polyamine concentration, Putrescine ([2]; 25 mg/kg): 87.46 pmoles/mg tissue wet weight
- renal polyamine concentration, Spermidine ([2]; 25 mg/kg): 257.13 pmoles/mg tissue wet weight
- renal polyamine concentration, Spermine ([2]; 25 mg/kg): 459.99 pmoles/mg tissue wet weight
- hepatic concentration, Bis-α-Methylspermine ([2]; 37.5 mg/kg): 283.40 pmoles/mg tissue wet weight
- hepatic polyamine concentration, N^1-Acetylspermidine ([2]; 37.5 mg/kg): 14.57 pmoles/mg tissue wet weight
- hepatic polyamine concentration, N^8-Acetylspermidine ([2]; 37.5 mg/kg): 2.10 pmoles/mg tissue wet weight
- hepatic polyamine concentration, Putrescine ([2]; 37.5 mg/kg): 96.27 pmoles/mg tissue wet weight
- hepatic polyamine concentration, Spermidine ([2]; 37.5 mg/kg): 772.68 pmoles/mg tissue wet weight
- hepatic polyamine concentration, Spermine ([2]; 37.5 mg/kg): 754.59 pmoles/mg tissue wet weight
- pancreatic concentration, Bis-α-Methylspermine ([2]; 37.5 mg/kg): 415.40 ± 92.86 pmoles/mg tissue wet weight
- pancreatic polyamine concentration, N^1-Acetylspermidine ([2]; 37.5 mg/kg): 123.67 pmoles/mg tissue wet weight
- pancreatic polyamine concentration, N^8-Acetylspermidine ([2]; 37.5 mg/kg): 55.34 pmoles/mg tissue wet weight
- pancreatic polyamine concentration, Putrescine ([2]; 37.5 mg/kg): 233.06 ± 45.81 *^+ pmoles/mg tissue wet weight
- pancreatic polyamine concentration, Spermidine ([2]; 37.5 mg/kg): 5997.63 ± 24.26 ^+ pmoles/mg tissue wet weight
- pancreatic polyamine concentration, Spermine ([2]; 37.5 mg/kg): 708.66 ± 179.23 ^++ pmoles/mg tissue wet weight
- renal concentration, Bis-α-Methylspermine ([2]; 37.5 mg/kg): 415.40 pmoles/mg tissue wet weight
- renal polyamine concentration, N^1-Acetylspermidine ([2]; 37.5 mg/kg): 28.73 pmoles/mg tissue wet weight
- renal polyamine concentration, N^8-Acetylspermidine ([2]; 37.5 mg/kg): 15.95 ± 6.92 pmoles/mg tissue wet weight
- renal polyamine concentration, Putrescine ([2]; 37.5 mg/kg): 93.95 pmoles/mg tissue wet weight
- renal polyamine concentration, Spermidine ([2]; 37.5 mg/kg): 289.83 pmoles/mg tissue wet weight
- renal polyamine concentration, Spermine ([2]; 37.5 mg/kg): 513.58 pmoles/mg tissue wet weight
- hepatic concentration, Bis-α-Methylspermine ([2]; 50 mg/kg): 379.77 pmoles/mg tissue wet weight
- hepatic polyamine concentration, N^8-Acetylspermidine ([2]; 50 mg/kg): 8.72 pmoles/mg tissue wet weight
- hepatic polyamine concentration, Putrescine ([2]; 50 mg/kg): 52.40 pmoles/mg tissue wet weight
- hepatic polyamine concentration, Spermidine ([2]; 50 mg/kg): 688.44 pmoles/mg tissue wet weight
- hepatic polyamine concentration, Spermine ([2]; 50 mg/kg): 687.71 pmoles/mg tissue wet weight
- pancreatic concentration, Bis-α-Methylspermine ([2]; 50 mg/kg): 459.26 ± 18.65 pmoles/mg tissue wet weight
- pancreatic polyamine concentration, N^8-Acetylspermidine ([2]; 50 mg/kg): 82.23 pmoles/mg tissue wet weight
- pancreatic polyamine concentration, Putrescine ([2]; 50 mg/kg): 297.48 ± 123.94^++ pmoles/mg tissue wet weight
